In one experiment the target is PLK2 (Homo sapiens, UniProt Q9NYY3). The experiment can be described thus: Kinase panel screening at InVitrogen Corporation, PLK2. The following applies: screening at 10 μM compound.
The target of a further experiment is PLK1 (Homo sapiens, UniProt P53350). The experiment can be described thus: Kinase panel screening at InVitrogen Corporation, PLK1. The following applies: screening at 10 μM compound.
For a further experiment, the target named is ABL1 (Homo sapiens, UniProt P00519). The experiment can be described thus: Kinase panel screening and titration, ABL1.
Sequence of ABL1 (P00519 whole entry): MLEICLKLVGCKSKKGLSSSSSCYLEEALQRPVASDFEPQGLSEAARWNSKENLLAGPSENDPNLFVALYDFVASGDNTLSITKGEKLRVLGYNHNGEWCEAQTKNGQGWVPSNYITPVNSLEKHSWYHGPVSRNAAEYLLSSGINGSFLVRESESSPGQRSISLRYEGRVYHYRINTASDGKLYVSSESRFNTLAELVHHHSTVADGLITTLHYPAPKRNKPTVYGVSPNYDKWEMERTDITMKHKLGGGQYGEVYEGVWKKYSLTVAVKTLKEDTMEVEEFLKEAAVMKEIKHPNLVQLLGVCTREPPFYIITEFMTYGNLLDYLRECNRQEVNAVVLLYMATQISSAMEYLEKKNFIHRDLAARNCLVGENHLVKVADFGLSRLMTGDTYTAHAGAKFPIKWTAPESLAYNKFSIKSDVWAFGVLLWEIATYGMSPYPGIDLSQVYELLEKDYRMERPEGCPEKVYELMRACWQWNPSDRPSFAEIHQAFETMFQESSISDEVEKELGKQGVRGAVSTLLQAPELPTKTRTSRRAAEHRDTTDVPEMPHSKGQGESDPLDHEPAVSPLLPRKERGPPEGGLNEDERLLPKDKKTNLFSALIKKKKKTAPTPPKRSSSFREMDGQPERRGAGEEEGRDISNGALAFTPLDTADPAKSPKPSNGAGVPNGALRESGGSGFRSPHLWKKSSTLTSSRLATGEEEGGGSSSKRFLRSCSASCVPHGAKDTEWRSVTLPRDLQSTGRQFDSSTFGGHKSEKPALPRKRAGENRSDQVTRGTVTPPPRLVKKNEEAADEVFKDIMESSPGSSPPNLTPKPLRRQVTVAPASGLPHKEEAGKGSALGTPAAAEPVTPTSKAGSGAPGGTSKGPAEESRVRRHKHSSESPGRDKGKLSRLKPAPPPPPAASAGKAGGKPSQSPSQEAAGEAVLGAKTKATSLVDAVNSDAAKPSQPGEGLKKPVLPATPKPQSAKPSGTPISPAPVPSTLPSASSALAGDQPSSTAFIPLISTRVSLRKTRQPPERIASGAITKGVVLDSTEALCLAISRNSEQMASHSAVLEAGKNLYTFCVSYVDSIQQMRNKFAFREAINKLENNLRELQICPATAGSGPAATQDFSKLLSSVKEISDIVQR
In the next experiment the target is KDR (Homo sapiens, UniProt P35968). The experiment can be described thus: Kinase panel screening and titration, KDR.
Sequence of KDR (P35968 20-1356): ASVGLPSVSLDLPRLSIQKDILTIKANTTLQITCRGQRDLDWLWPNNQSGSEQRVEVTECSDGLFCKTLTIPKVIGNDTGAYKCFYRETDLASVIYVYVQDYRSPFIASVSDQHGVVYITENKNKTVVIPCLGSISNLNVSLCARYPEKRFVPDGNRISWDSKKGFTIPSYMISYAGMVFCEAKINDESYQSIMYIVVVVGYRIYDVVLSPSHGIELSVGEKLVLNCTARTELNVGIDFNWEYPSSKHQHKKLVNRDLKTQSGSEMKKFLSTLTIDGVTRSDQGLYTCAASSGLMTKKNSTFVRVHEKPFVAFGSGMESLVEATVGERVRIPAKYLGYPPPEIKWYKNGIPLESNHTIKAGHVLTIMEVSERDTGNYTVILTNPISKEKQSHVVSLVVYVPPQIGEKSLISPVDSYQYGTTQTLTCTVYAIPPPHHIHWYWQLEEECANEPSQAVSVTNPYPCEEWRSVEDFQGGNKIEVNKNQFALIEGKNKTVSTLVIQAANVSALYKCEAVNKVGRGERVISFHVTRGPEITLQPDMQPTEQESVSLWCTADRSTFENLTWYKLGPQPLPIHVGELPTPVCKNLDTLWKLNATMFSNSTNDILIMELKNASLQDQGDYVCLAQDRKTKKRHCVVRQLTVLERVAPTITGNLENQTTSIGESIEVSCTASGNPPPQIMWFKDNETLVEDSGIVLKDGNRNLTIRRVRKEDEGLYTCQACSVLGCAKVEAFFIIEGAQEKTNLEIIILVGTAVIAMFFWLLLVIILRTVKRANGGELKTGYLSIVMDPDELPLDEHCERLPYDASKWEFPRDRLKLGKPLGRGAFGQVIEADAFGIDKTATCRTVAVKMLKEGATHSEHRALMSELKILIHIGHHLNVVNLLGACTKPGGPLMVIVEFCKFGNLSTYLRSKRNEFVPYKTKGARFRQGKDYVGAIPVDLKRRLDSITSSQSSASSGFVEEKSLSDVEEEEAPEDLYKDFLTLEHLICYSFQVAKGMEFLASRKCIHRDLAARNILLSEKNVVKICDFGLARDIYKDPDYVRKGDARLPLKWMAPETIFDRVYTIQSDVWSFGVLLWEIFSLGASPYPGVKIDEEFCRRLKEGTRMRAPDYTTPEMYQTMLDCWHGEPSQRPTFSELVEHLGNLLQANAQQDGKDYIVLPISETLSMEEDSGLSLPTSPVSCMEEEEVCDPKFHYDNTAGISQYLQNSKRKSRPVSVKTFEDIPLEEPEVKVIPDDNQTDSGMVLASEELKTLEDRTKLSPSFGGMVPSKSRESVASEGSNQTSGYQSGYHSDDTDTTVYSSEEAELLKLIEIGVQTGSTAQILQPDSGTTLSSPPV
In experiment [1] the test system is over 300 kinases, including CDK-1, CDK-2, CDK-5, CLK-1, CLK-2, CLK-3, CLK-4, NEK-1, NEK-2, NEK-4, NEK-6, NEK-7, MAP4K4 and STK16. The experiment can be described thus: Kinase panel screening at InVitrogen Corporation, over 300 kinases. To be noted: 10 μM compound; all but 21 of over 300 kinases, including CDK-1, CDK-2, CDK-5, CLK-1 to CLK-4, NEK-1, -2, -4, -6, -7, MAP4K4, STK16.

In a further experiment the target is T1, GST-PLK3 (Homo sapiens, UniProt Q9H4B4).
T1 construct: purchased CarnaBio
T1 sequence (Q9H4B4 whole entry): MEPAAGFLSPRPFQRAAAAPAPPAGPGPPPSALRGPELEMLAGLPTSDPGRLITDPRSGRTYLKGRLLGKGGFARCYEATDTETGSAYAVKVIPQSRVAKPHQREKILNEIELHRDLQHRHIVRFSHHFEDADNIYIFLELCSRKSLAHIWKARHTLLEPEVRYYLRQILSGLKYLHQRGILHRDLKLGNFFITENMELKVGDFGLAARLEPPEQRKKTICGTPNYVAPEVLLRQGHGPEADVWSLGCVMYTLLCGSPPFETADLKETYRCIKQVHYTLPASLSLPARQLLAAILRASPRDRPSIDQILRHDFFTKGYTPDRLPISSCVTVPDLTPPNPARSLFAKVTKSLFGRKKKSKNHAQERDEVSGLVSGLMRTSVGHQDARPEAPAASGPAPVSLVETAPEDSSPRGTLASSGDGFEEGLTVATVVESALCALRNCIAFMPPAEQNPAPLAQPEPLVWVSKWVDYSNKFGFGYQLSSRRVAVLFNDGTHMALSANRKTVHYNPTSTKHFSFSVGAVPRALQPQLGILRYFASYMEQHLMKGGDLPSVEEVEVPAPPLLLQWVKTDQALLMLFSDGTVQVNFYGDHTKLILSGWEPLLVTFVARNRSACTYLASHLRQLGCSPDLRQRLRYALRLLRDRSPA
The experiment can be described thus: PLK TR-FRET peptide assay, PLK3. The following applies: PLK TR-FRET peptide assay, GST-PLK3; read-out: Plk3 IC50. The experiment is classed as biochemical. For orientation: In TR-FRET formats the signal depends on donor and acceptor labels being close together.

The target in a further experiment is GST-PLK1 (Homo sapiens, UniProt P53350). The experiment can be described thus: PLK TR-FRET peptide assay, PLK1. The format is biochemical. To be noted: read-out: Plk1 IC50.
Sequence of GST-PLK1 (P53350 whole entry): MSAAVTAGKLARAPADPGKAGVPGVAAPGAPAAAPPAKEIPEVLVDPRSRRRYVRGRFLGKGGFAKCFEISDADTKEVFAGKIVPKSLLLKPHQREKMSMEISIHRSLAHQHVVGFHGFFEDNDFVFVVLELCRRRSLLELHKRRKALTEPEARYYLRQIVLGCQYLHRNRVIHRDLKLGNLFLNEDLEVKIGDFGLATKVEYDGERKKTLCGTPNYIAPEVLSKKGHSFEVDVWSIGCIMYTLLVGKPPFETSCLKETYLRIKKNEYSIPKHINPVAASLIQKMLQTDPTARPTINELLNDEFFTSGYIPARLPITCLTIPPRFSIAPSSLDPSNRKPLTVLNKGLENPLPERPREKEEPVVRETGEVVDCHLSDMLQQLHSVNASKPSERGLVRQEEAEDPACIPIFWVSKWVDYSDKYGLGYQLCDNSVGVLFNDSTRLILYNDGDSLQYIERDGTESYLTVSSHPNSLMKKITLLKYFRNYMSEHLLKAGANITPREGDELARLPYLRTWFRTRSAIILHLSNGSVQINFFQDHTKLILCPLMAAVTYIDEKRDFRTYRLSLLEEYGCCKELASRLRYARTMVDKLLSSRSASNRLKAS
Another experiment has as its target T2, GST-PLK2 (Homo sapiens, UniProt Q9NYY3).
T2 construct: purchased CarnaBio
The experiment can be described thus: PLK TR-FRET peptide assay, PLK2. The format is biochemical. To be noted: for IC50: PLK TR-FRET peptide assay, GST-PLK2, read-out: Plk2 IC50.

Results on 22 compounds are retold here after US8445503B2, “Inhibitors of polo-like kinase” (Elan Pharmaceuticals, Inc., priority 2009, dated 2013).

Where only a bound is given, the exact number is not on record here.

T2 sequence (Q9NYY3 whole entry): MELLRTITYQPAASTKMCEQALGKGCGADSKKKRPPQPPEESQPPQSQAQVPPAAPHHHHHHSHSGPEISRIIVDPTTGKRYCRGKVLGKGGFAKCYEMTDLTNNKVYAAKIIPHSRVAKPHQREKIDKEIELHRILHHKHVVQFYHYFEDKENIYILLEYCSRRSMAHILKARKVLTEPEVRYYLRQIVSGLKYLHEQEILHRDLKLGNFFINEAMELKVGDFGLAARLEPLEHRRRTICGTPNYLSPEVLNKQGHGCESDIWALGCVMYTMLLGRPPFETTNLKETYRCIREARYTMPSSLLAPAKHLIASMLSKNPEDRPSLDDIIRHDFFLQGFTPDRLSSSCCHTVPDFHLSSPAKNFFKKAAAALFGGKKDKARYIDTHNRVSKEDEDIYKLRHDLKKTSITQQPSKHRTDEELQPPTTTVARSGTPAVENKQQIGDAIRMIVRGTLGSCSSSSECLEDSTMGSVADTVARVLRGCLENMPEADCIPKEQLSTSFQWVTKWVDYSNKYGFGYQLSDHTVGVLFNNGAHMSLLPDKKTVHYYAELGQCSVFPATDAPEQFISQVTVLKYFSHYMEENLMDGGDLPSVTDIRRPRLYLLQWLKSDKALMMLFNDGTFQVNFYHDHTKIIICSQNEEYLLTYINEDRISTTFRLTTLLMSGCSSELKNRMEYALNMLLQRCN
Sequence of PLK2 (Q9NYY3 whole entry): as above
Sequence of PLK1 (P53350 whole entry): as the sequence (P53350 whole entry) above

As for `CC[C@@H]1C(=O)N(C)c2cnc(-n3ccnc3-c3ccccc3)nc2N1C1CCCC1` [Example 26, (R)-8-cyclopentyl-7-ethyl-5-methyl-2-(2-phenyl-1H-imidazol-1-yl)-7,8-dihydropteridin-6(5H)-one], the “activity against PLK2 in kinase panel” value on PLK2 is “potent”.
For the compound `CC[C@@H]1C(=O)N(C)c2cnc(-n3ccnc3-c3cscn3)nc2N1C1CCCC1` [Example 68], the “activity against PLK1 in kinase panel” value on PLK1 is “potent”. Also, the “activity against PLK2 in kinase panel” value on PLK2 is recorded as “potent”.
By IC50 is commonly meant the concentration at which inhibition is half-maximal. In the case of `CC[C@@H]1C(=O)N(C)c2cnc(-n3ccnc3-c3cccc(F)c3)nc2N1C1CCOC1` (stereo partly shown) [Example 192], on ABL1 (10 μM compound), the “percent inhibition of ABL1” value is listed as “greater than 80%”. Moreover, the IC50 at ABL1 (read-out: IC50 ABL1, when titrated) was more than 10 µM; at KDR (read-out: IC50 KDR, when titrated), more than 10 µM. For the same compound, the “activity against PLK1 in kinase panel” value at PLK1 is “potent”. Also, on KDR (10 μM compound), the “percent inhibition of KDR” value was “greater than 80%”. In experiment [1], the “percent inhibition of kinase” value is listed as “below 40%”. The “activity against PLK2 in kinase panel” value at PLK2 is on record as “potent”.
As for `CC[C@@H]1C(=O)N(C)c2cnc(-n3cnc(C)c3)nc2N1C1CCCC1` [Example 55, (R)-8-cyclopentyl-7-ethyl-5-methyl-2-(4-methyl-1H-imidazol-1-yl)-7,8-dihydropteridin-6(5H)-one], the half-maximal inhibitory concentration (IC50) is 10 to 50 µM at GST-PLK3, less than 1 µM at GST-PLK1 and less than 1 µM on GST-PLK2.
Regarding `CC[C@@H]1C(=O)N(C)c2cnc(-n3ccc(C(=O)N(C)C)n3)nc2N1C1CCCC1` [Example 61, (R)-1-(8-cyclopentyl-7-ethyl-5-methyl-6-oxo-5,6,7,8-tetrahydropteridin-2-yl)-N,N-dimethyl-1H-pyrazole-3-carboxamide], the IC50 at GST-PLK3, at GST-PLK1 and at GST-PLK2 was 1 to 10 µM in each case.
On to `CC[C@@]12CCCN1c1nc(-n3ccnc3-c3ccccc3)ncc1N(C)C2=O` [Example 76, (S)-6a-ethyl-5-methyl-2-(2-phenyl-1H-imidazol-1-yl)-6a,7,8,9-tetrahydropyrrolo[2,1-h]pteridin-6(5H)-one], for which the IC50 on GST-PLK3 was 1 to 10 µM; on GST-PLK1, 10 to 50 µM; on GST-PLK2, less than 1 µM. Besides, the “activity against PLK1 in kinase panel” value on PLK1 is on record as “potent”. On PLK2, the “activity against PLK2 in kinase panel” value is “potent”.
For the compound `CC[C@]12COCCN1c1nc(-c3snnc3-c3ccc(F)cn3)ncc1N(C)C2=O` [Example 416, (R)-6a-ethyl-2-(4-(5-fluoropyridin-2-yl)-1,2,3-thiadiazol-5-yl)-5-methyl-6a,7,9,10-tetrahydro-[1,4]oxazino[3,4-h]pteridin-6(5H)-one], the IC50 on GST-PLK3 is more than 50 µM; at GST-PLK1 it was more than 50 µM; at GST-PLK2, 10 to 50 µM.
On to `CC[C@@H]1C(=O)N(C)c2cnc(-c3cn(C)nc3-c3nccs3)nc2N1c1cnn(C)c1` [Example 417, (R)-7-ethyl-5-methyl-8-(1-methyl-1H-pyrazol-4-yl)-2-(1-methyl-3-(thiazol-2-yl)-1H-pyrazol-4-yl)-7,8-dihydropteridin-6(5H)-one], for which the values for the IC50 on GST-PLK3, at GST-PLK1 and at GST-PLK2 were more than 50 µM, 10 to 50 µM and less than 1 µM, respectively.
Turning to `CC[C@@H]1CC[C@@]2(CC)C(=O)N(C)c3cnc(-n4ccnc4-c4ccccc4)nc3N12` [Example 309, (6aS,9R)-6a,9-diethyl-5-methyl-2-(2-phenyl-1H-imidazol-1-yl)-6a,7,8,9-tetrahydropyrrolo[2,1-h]pteridin-6(5H)-one], the IC50 at GST-PLK3, on GST-PLK1 and at GST-PLK2 was less than 1 µM throughout.
`CC[C@@H]1C(=O)N(C)c2cnc(-c3cnncc3-c3ccccc3)nc2N1C1CCCC1` [Example 139, (R)-8-cyclopentyl-7-ethyl-5-methyl-2-(5-phenylpyridazin-4-yl)-7,8-dihydropteridin-6(5H)-one]: the IC50 at GST-PLK3, at GST-PLK1 and on GST-PLK2 was less than 1 µM throughout.
With `CC[C@]12COCCN1c1nc(-c3ccncc3-c3ccccc3)ncc1N(C)C2=O` [Example 396, (R)-6a-ethyl-5-methyl-2-(3-phenylpyridin-4-yl)-6a,7,9,10-tetrahydro-[1,4]oxazino[3,4-h]pteridin-6(5H)-one], the IC50 on GST-PLK3, on GST-PLK1 and at GST-PLK2 was more than 50 µM each time.
With `CC[C@@H]1C(=O)N(C)c2cnc(-c3ccn(C)c(=O)c3)nc2N1C1CCCC1` [Example 19, (R)-8-cyclopentyl-7-ethyl-5-methyl-2-(1-methyl-2-oxo-1,2-dihydropyridin-4-yl)-7,8-dihydropteridin-6(5H)-one], the IC50 on GST-PLK3 was 10 to 50 µM; on GST-PLK1 it was less than 1 µM; on GST-PLK2, less than 1 µM.
`CC[C@@H]1C(=O)N(C)c2cnc(-c3sc(N)nc3-c3ccc(F)cc3)nc2N1C(C)C` [Example 318, (R)-2-(2-amino-4-(4-fluorophenyl)thiazol-5-yl)-7-ethyl-8-isopropyl-5-methyl-7,8-dihydropteridin-6(5H)-one]: the IC50 on GST-PLK3, on GST-PLK1 and on GST-PLK2 was less than 1 µM throughout.
Take `CCC1C(=O)N(C)c2cnc(-n3ccnc3-c3ccccc3)nc2N1NC(=O)OC(C)(C)C` (stereo not shown) [Example 275, tert-butyl 7-ethyl-5-methyl-6-oxo-2-(2-phenyl-1H-imidazol-1-yl)-6,7-dihydropteridin-8(5H)-ylcarbamate]: the half-inhibitory concentration (IC50) at GST-PLK3 was more than 50 µM; at GST-PLK1 it was more than 50 µM; on GST-PLK2 it was 10 to 50 µM.
As to `CCC1C(=O)N(C)c2cnc(-n3ccnc3-c3ccccc3)nc2N1N` (stereo not shown) [Example 278, 8-amino-7-ethyl-5-methyl-2-(2-phenyl-1H-imidazol-1-yl)-7,8-dihydropteridin-6(5H)-one], the IC50 on GST-PLK3 is 10 to 50 µM; on GST-PLK1 it was 10 to 50 µM; on GST-PLK2, less than 1 µM.
In the case of `CC[C@@H]1C(=O)N(C)c2cnc(-n3cnc(C(=O)OC)c3)nc2N1C1CCCC1` [Example 38, (R)-methyl 1-(8-cyclopentyl-7-ethyl-5-methyl-6-oxo-5,6,7,8-tetrahydropteridin-2-yl)-1H-imidazole-4-carboxylate], the IC50 at GST-PLK3 was 1 to 10 µM; at GST-PLK1, less than 1 µM; on GST-PLK2, 1 to 10 µM.
As for `CC[C@@H]1C(=O)N(C)c2cnc(-n3cnc(C(=O)O)c3)nc2N1C1CCCC1` [Example 37, (R)-1-(8-cyclopentyl-7-ethyl-5-methyl-6-oxo-5,6,7,8-tetrahydropteridin-2-yl)-1H-imidazole-4-carboxylic acid], the IC50 on GST-PLK3, on GST-PLK1 and on GST-PLK2 was less than 1 µM each time.
For `CCC12COCCN1c1nc(-c3cn[nH]c3-c3ccc(F)cc3F)ncc1N(C)C2=O` (racemic) [Example 405, 2-(5-(2,4-difluorophenyl)-1H-pyrazol-4-yl)-6a-ethyl-5-methyl-6a,7,9,10-tetrahydro-[1,4]oxazino[3,4-h]pteridin-6(5H)-one], the IC50 on GST-PLK3 is 1 to 10 µM; at GST-PLK1, 10 to 50 µM; at GST-PLK2, less than 1 µM.
As for `CN1C(=O)[C@]2(C)CCCN2c2nc(-n3ccnc3-c3ccccc3)ncc21` [Example 80, (S)-5,6a-dimethyl-2-(2-phenyl-1H-imidazol-1-yl)-6a,7,8,9-tetrahydropyrrolo[2,1-h]pteridin-6(5H)-one], the concentration for half-maximal inhibition (IC50) was 10 to 50 µM at GST-PLK3, 10 to 50 µM on GST-PLK1 and less than 1 µM on GST-PLK2.
For `CC[C@@]12COCCN1c1nc(-c3cn[nH]c3-c3ccc(F)cc3F)ncc1N(C)C2=O` [Example 411, (S)-2-(5-(2,4-difluorophenyl)-1H-pyrazol-4-yl)-6a-ethyl-5-methyl-6a,7,9,10-tetrahydro-[1,4]oxazino[3,4-h]pteridin-6(5H)-one], the IC50 on GST-PLK3 is 1 to 10 µM; on GST-PLK1 it was 10 to 50 µM; on GST-PLK2 it was less than 1 µM. Also, the “PLK2 activity relative to the opposite enantiomer / other isomer” value at GST-PLK2 (comparison of resolved enantiomers, used to assign absolute configuration) was “more active compound”.
Consider `CC[C@@H]1C(=O)N(C)c2cnc(-c3scnc3-c3ccc(F)cc3)nc2N1C(C)C` [Example 319, (R)-7-ethyl-2-(4-(4-fluorophenyl)thiazol-5-yl)-8-isopropyl-5-methyl-7,8-dihydropteridin-6(5H)-one], for which the results for the concentration for half-maximal inhibition (IC50) at GST-PLK3, on GST-PLK1 and on GST-PLK2 were 1 to 10 µM, 1 to 10 µM and less than 1 µM, respectively.
For `CC[C@@H]1C(=O)N(C)c2cnc(-c3cncnc3-c3ccccc3)nc2N1C1CCCC1` [Example 132, (R)-8-cyclopentyl-7-ethyl-5-methyl-2-(4-phenylpyrimidin-5-yl)-7,8-dihydropteridin-6(5H)-one], the IC50 at GST-PLK3, at GST-PLK1 and on GST-PLK2 was less than 1 µM in each case.
